PubChem BioAssay (NCI)
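Each compound was tested at five concentrations against cells in 96-well plates for 48 hours. GI50 is the concentration that inhibits growth by half. TGI is the concentration that stops growth completely.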

How the values were obtained:
Assay in all cases: growth of human tumour cells (NCI), 48 h
[1] = test system: HT29 colon
[2] = test system: T-47D breast
[3] = test system: IGROV1 ovarian
[4] = test system: SW-620 colon
[5] = test system: DU-145 prostate
[6] = test system: TK-10 renal
[7] = test system: NCI-H226 lung
[8] = test system: HOP-62 NSCLC
[9] = test system: UACC-62 melanoma
[10] = test system: SNB-19 CNS
[11] = test system: MOLT-4 leukemia
[12] = test system: SK-OV-3 ovarian
[13] = test system: OVCAR-4 ovarian
[14] = test system: SK-MEL-28 melanoma
[15] = test system: A498 renal
[16] = test system: OVCAR-3 ovarian
[17] = test system: K-562 leukemia
[18] = test system: NCI/ADR-RES ovarian
[19] = test system: SR leukemia
[20] = test system: PC-3 prostate
[21] = test system: HS 578T breast
[22] = test system: ACHN renal
[23] = test system: OVCAR-5 ovarian
[24] = test system: UACC-257 melanoma
[25] = test system: SK-MEL-5 melanoma
[26] = test system: MALME-3M melanoma
[27] = test system: UO-31 renal
[28] = test system: NCI-H460 lung
[29] = test system: EKVX NSCLC
[30] = test system: HCT-116 colon
[31] = test system: LOX IMVI melanoma
[32] = test system: KM12 colon
[33] = test system: MCF7 breast
[34] = test system: NCI-H23 lung
[35] = test system: CAKI-1 renal
[36] = test system: MDA-MB-435
[37] = test system: SF-295 CNS
[38] = test system: HCC-2998 colon
[39] = test system: MDA-MB-231 breast
[40] = test system: M14 melanoma
[41] = test system: SNB-75 CNS
[42] = test system: A549 NSCLC
[43] = test system: 786-0 renal
[44] = test system: U251 CNS
[45] = test system: RPMI-8226 leukemia
[46] = test system: MDA-N
[47] = test system: HCT-15 colon
[48] = test system: OVCAR-8 ovarian
[49] = test system: SF-539 CNS
[50] = test system: SN12C renal
[51] = test system: SK-MEL-2 melanoma
[52] = test system: SF-268 CNS
[53] = test system: COLO 205 colon
[54] = test system: HL-60(TB) leukemia
[55] = test system: BT-549 breast
[56] = test system: CCRF-CEM leukemia
[57] = test system: NCI-H522 lung
[58] = test system: RXF 393 renal
[59] = test system: HOP-92 NSCLC

Cc1ccc(S(=O)(=O)N(CCNC(=O)c2cccc(O)c2O)c2cc3c4c(c2)Oc2cccc5c2C4(C)c2c(cccc2O3)O5)cc1
TGI [1]: > 100 µM | TGI [2]: > 100 µM | TGI [3]: > 100 µM | TGI [4]: > 100 µM | TGI [5]: > 100 µM | TGI [6]: > 100 µM | TGI [7]: 65.8 µM | TGI [8]: > 100 µM | TGI [9]: > 100 µM | TGI [10]: > 100 µM | TGI [11]: > 100 µM | TGI [12]: > 100 µM | TGI [13]: > 100 µM | TGI [14]: > 100 µM | TGI [15]: > 100 µM | TGI [16]: > 100 µM | TGI [17]: > 100 µM | TGI [18]: 58 µM | TGI [19]: > 100 µM | TGI [20]: > 100 µM | TGI [21]: > 100 µM | TGI [22]: > 100 µM | TGI [23]: > 100 µM | TGI [24]: > 100 µM | TGI [25]: > 100 µM | TGI [26]: > 100 µM | TGI [27]: > 100 µM | TGI [28]: > 100 µM | TGI [29]: > 100 µM | TGI [30]: > 100 µM | TGI [31]: > 100 µM | TGI [32]: > 100 µM | TGI [33]: > 100 µM | TGI [34]: > 100 µM | TGI [35]: > 100 µM | TGI [36]: > 100 µM | TGI [37]: > 100 µM | TGI [38]: > 100 µM | TGI [39]: > 100 µM | TGI [40]: > 100 µM | TGI [41]: > 100 µM | TGI [42]: > 100 µM | TGI [43]: > 100 µM | TGI [44]: > 100 µM | TGI [45]: > 100 µM | TGI [46]: > 100 µM | TGI [47]: > 100 µM | TGI [48]: > 100 µM | TGI [49]: > 100 µM | TGI [50]: > 100 µM | TGI [51]: > 100 µM | TGI [52]: > 100 µM

FC(F)(F)c1cccc(-c2[nH]ncc2-c2nnnn2-c2ccccc2)c1
GI50 [1]: 2.99 µM | TGI [1]: 9.33 µM | GI50 [2]: 4.23 µM | TGI [2]: 24.7 µM | GI50 [3]: 3.96 µM | TGI [3]: 15.4 µM | GI50 [4]: 3.23 µM | TGI [4]: 12.2 µM | GI50 [5]: 7.43 µM | TGI [5]: 21.5 µM | GI50 [6]: 6.6 µM | TGI [6]: 20 µM | GI50 [7]: 13.2 µM | TGI [7]: 31.1 µM | GI50 [8]: 7.88 µM | TGI [8]: 23.4 µM | GI50 [9]: 4.22 µM | TGI [9]: 15.8 µM | GI50 [11]: 4.79 µM | TGI [11]: 28.8 µM | GI50 [12]: 6.05 µM | TGI [12]: 21.9 µM | GI50 [53]: 3.49 µM | TGI [53]: 13 µM | GI50 [54]: 3.94 µM | TGI [54]: 8.86 µM | GI50 [13]: 11.7 µM | TGI [13]: 28.8 µM | GI50 [14]: 5.6 µM | TGI [14]: 19.1 µM | GI50 [15]: 4.28 µM | TGI [15]: 17.8 µM | GI50 [16]: 2.97 µM | TGI [16]: 10.9 µM | GI50 [17]: 3.3 µM | TGI [17]: 15.8 µM | GI50 [18]: 3.17 µM | TGI [18]: 25.2 µM | GI50 [19]: 1.94 µM | TGI [19]: 5.42 µM | GI50 [20]: 6.3 µM | TGI [20]: 51.2 µM | GI50 [55]: 3.78 µM | TGI [55]: 13.9 µM | GI50 [21]: 4.85 µM | TGI [21]: 28.4 µM | GI50 [22]: 11.2 µM | TGI [22]: 24.5 µM | GI50 [56]: 5.3 µM | TGI [56]: 22.9 µM | GI50 [23]: 10.6 µM | TGI [23]: 31.2 µM | GI50 [24]: 11.4 µM | TGI [24]: 33.9 µM | GI50 [25]: 3.01 µM | TGI [25]: 10.6 µM | GI50 [26]: 3.66 µM | TGI [26]: 13.3 µM | GI50 [27]: 10.7 µM | TGI [27]: 23.6 µM | GI50 [28]: 3.32 µM | TGI [28]: 12.8 µM | GI50 [57]: 4.58 µM | TGI [57]: 19 µM | GI50 [29]: 8.43 µM | TGI [29]: 29.7 µM | GI50 [30]: 4.7 µM | TGI [30]: 19.4 µM | GI50 [58]: 2.91 µM | TGI [58]: 11.7 µM | GI50 [31]: 6.41 µM | TGI [31]: 19.5 µM | GI50 [32]: 4.08 µM | TGI [32]: 22.2 µM | GI50 [33]: 3.3 µM | TGI [33]: 13.7 µM | GI50 [34]: 5.86 µM | TGI [34]: 23.3 µM | GI50 [35]: 5.36 µM | TGI [35]: 27.7 µM | GI50 [36]: 1.86 µM | TGI [36]: 5.89 µM | GI50 [37]: 2.49 µM | TGI [37]: 9.04 µM | GI50 [38]: 2.5 µM | TGI [38]: 11 µM | GI50 [39]: 3.2 µM | TGI [39]: 12.7 µM | GI50 [40]: 3.21 µM | TGI [40]: 11.6 µM | GI50 [41]: 4.81 µM | TGI [41]: 20.1 µM | GI50 [42]: 4.54 µM | TGI [42]: 84.9 µM | GI50 [43]: 5.78 µM | TGI [43]: 22 µM | GI50 [44]: 4.69 µM | TGI [44]: 17.1 µM | GI50 [45]: 3.12 µM | TGI [45]: 13.3 µM | GI50 [47]: 3.71 µM | TGI [47]: 16.3 µM | GI50 [48]: 7.77 µM | TGI [48]: 90.2 µM | GI50 [49]: 6.79 µM | TGI [49]: 21 µM | GI50 [50]: 9.76 µM | TGI [50]: 21.9 µM | TGI [59]: 8.19 µM | GI50 [51]: 12.8 µM | TGI [51]: 31 µM | GI50 [52]: 7.69 µM | TGI [52]: 23.3 µM
